How the values were obtained:
[1] = basic moiety of the compound (trialkylhydrazine / O-alkylaminooxy); cited from earlier work
[2] = HPLC kinetics assay: condensation of model amines with benzyloxyacetaldehyde; conditions: 50 μM amine and aldehyde, room temperature, 2 h, above pH 6
Method: Experimental Protocol for HPLC Kinetics Assay: Reaction mixtures contained amine 4, 6, 7, or 8 (50 μM), benzyloxyacetaldehyde (50 μM), bromocresol green (10 μM), and buffer (10 mM) in a 120 μL aqueous solution containing 6.7% MeCN, which was present to solubilize the stock solution (1 mM) of benzyloxyacetaldehyde. After 2 h at room temperature, a 100 μL aliquot was analyzed by HPLC, employing a gradient of 10 to 100% acetonitrile in water over 18 min.
As described above, buffered solutions containing 50 μM amine and aldehyde were incubated at room temperature for 2 h prior to analysis by HPLC.

For `CNN(C)Cc1cc2ccccc2n1CCC(=O)O` [Compound 4, Piperidinium 3-(2-((1,2-dimethylhydrazinyl)methyl)-1H-indol-1-yl)propanoate], the pKa [1] is given as ~6.56 and the “% conversion to product” value [2] is given as “higher % conversion to product than the other amine nucleophiles”.

Source: patent US11426465B2, “Hydrazinyl-indole compounds and methods for producing a conjugate” (Redwood Bioscience, Inc., priority 2012, dated 2022)
